Source: patent publication US20200390102A1, “SYNERGISTIC ANTIMICROBIAL COMPOSITION” (DDP SPECIALTY ELECTRONIC MATERIALS US, INC., priority 2017, published 2020)

How the values were obtained:
[1] = system: Pseudomonas aeruginosa (ATCC […]) and Escherichia coli (ATCC 10145) combined inoculum; test: Synergy in the planktonic phase, 48 h biocide challenge with regrowth (turbidity) readout; assay type: cell-based; details: P. aeruginosa/E. coli, 48 h challenge at 30° C., phosphate buffer pH 7.3
Experimental: Pseudomonas aeruginosa (ATCC […]) and Escherichia coli (ATCC 10145) cultures were separately prepared from glycerol stocks. First they were streak plated and validated with a microscope. Single colonies were picked and used to inoculate 200 mL shake flasks that were grown statically overnight at 30° C. (30 grams/L Tryptic Soy Broth) to produce the initial inoculum. A deep-well 96 well challenge plate (2 mL maximum well volume) was prepared using 900 μL/well phosphate buffer at pH 7.3, (0.0027M potassium chloride, 0.137 M sodium chloride). Inoculation took place at the start of the experiments (with a 100 μL combined inoculum, adding to the 900 μL buffer to total 1 mL/well). The inoculum added between 1*10^8 and 1*10^9 total cells/mL based on OD600 measurement. […]
The inoculated assay block was challenged at 30° C. for 48 hours. […] This was done in triplicate for each point (the triplicate is already present in the biocide block viz. each point is truly determined in triplicate). […]
The recovery plates were subsequently read (checked for microbial growth) at 72 hours after addition of the culture, to recovery media. Ranking of biocidal efficacy was done by recording the development of turbidity within each well (determined by visual inspection). […] Ranking was done per average value of three data points determined per experiment. (Recorded in log regrowth). […]

[2] = system: Thermus thermophilus (DSM: 579); test: Synergy in the planktonic phase, 48 h biocide challenge at 60° C. with dilution-series regrowth readout; assay type: cell-based
Experimental: Experiments using Thermus thermophdus (DSM: 579) as a test organism were also performed. In these experiments, the total concentration of biocides was 300 ppm for the combined total actives, the temperature at which the experiments were performed was 60° C., the media to grow Thermus thermophdus was DSMZ DSM 74-Media at pH 8.0. (Yeast extract (BD Difco) 4.0 g, Proteose peptone Nr. 3 (BD Difco) 8.0 g, NaCl 2.0 g, distilled water added to 1 L). The challenging with biocides against Thermus thermophilus was done in a standard ocean matrix with a similar salinity of 2% (similar to the media where they are cultured in). Once again, each experiment was done in triplicate.
The inoculated assay block was challenged at 60° C. for 48 hours. The inoculum prepared added between to 1*10^8 to 1*10^9 total cells/mL (determined by MPN analysis). After 48 hours of challenge with biocide, 20 μL aliquots of each treatment (well) were added to one of several 96 well plates with DSM 74-media. These 96 well plates were filled with ‘recovery’ media (DSM 74-Media). One of these plates was prepared for each column of the assay block. 180 μL recovery media was added to each well of a 96 well plate, except for column 1 of the recovery plate. This column was filled with 180 μL of one column of the assay block. The last three columns on the recovery plate were not pipetted. These columns represented the no template control for verifying proper plate set up and data reliability. The assay block sample was then diluted in steps of 10 fold by transferring 20 μL from e.g. columns 1 to column 2 and from column 2 to column 3 (until column 9) by applying a multichannel pipet in each recovery plate. […]
The recovery plates were allowed to regrow for 4-6 days and subsequently read (checked for microbial growth). This was done in duplicate for each point (the duplicate is already present in the biocide block viz. each point is truly determined in duplicate). […] Turbidity was checked in log scale reading the recovery plates. Turbidity was recorded via presence/absence and gave the log kill range (from the made dilution series). […]

O=CC=O [Glyoxal, glyoxal]
Glyoxal stand alone 48 h pass ([1]; glyoxal alone): 875 ppm
Glyoxal stand alone 48 h pass ([2]; T. thermophilus, glyoxal alone, 48 h challenge at 60° C., ocean matrix 2% salinity): 59 ppm
Sensitivity of Thermus thermophilus to Glyoxal ([2]; vs. Pseudomonas aeruginosa and E. coli): *Thermus thermophilus is more sensitive to Glyoxal vs. Pseudomonas aeruginosa and E. coli.

tetrakis(hydroxymethyl)phosphonium sulfate [THPS]
THPS stand alone 48 h pass ([1]; THPS alone): 130 ppm
THPS stand alone 48 h pass ([2]; T. thermophilus, THPS alone, 48 h challenge at 60° C., ocean matrix 2% salinity): 300 ppm
